These results are taken from article PMC6874179, “Development of Macrocycle Kinase Inhibitors for ALK2 Using Fibrodysplasia Ossificans Progressiva‐Derived Endothelial Cells” (JBMR Plus, 2019).

One test deals with T1, caALK1 (Homo sapiens, UniProt P37023, Q201D).
T1 construct: expressed in transfected cells; host or cells: C2C12 murine myofibroblast cells
Put plainly: BRE-LUC with constitutive active ALK1 in C2C12 cells. As to conditions: compound 0.5μM 16 hours. The class given is cell-based. As for the experimental part:
(§1) Compounds were added for 16 hours at 0.5μM before luciferase activity was measured.
(§2) For luciferase reporter assays, cells were seeded in 24-well plates and transfected with DharmaFECT Duo (Fisher Scientific, Landsmeer, The Netherlands), following the recommendations of the manufacturer. 48 hours after transfection the cells were harvested and lysed. […] Each transfection mixture was equalized with empty vector when necessary and every experiment was performed in triplicate.

The test system of a further test is caALK6. Put plainly: BRE-LUC with constitutive active ALK6 in C2C12 cells. The class given is cell-based. The note with it: compound 0.5μM 16 hours. As for the experimental part: as §1, §2
The target of a further test is T2, AURKB (Homo sapiens, UniProt Q96GD4).
T2 construct: purchased DiscoverX
T2 sequence (Q96GD4 whole entry): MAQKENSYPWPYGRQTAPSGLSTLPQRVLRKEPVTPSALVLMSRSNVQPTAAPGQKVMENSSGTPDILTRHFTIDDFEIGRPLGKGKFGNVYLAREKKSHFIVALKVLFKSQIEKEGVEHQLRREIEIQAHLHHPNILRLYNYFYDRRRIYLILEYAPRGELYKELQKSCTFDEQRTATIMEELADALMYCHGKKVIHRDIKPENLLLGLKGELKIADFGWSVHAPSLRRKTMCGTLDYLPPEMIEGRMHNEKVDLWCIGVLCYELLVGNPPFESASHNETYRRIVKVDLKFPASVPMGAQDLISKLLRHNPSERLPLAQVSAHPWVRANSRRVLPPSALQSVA
Put plainly: Proqinase Kinase profiling. The class given is biochemical. The note with it: read-out: % inhibition at 100nM.

The next test concerns the target T3, FLT1 (Homo sapiens, UniProt P17948).
T3 construct: purchased DiscoverX
The test can be described thus: Proqinase Kinase profiling. The class given is biochemical. As to conditions: read-out: % inhibition at 100nM.

The target of a further test is T4, GRK6 (Homo sapiens, UniProt P43250).
T4 construct: purchased DiscoverX
T4 sequence (P43250 whole entry): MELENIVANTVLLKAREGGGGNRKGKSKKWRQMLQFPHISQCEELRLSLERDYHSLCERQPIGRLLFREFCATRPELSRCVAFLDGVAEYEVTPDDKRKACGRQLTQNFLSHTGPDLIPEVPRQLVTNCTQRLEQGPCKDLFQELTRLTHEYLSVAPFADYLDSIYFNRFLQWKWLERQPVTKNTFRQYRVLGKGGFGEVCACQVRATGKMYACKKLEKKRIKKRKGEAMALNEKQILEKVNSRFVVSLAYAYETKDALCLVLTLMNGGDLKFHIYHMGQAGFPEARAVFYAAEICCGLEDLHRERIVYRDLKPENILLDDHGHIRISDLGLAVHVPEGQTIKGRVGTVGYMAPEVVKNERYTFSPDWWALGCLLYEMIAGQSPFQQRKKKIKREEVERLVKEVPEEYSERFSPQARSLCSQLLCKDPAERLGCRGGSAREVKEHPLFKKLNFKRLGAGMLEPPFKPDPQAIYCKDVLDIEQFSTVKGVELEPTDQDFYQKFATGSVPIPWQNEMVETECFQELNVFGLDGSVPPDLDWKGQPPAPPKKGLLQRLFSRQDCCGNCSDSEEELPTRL
Put plainly: Proqinase Kinase profiling. The class given is biochemical. As to conditions: read-out: % inhibition at 100nM.

The target in a further test is T5, PAK2 (Homo sapiens, UniProt Q13177).
T5 construct: purchased DiscoverX
T5 sequence (Q13177 whole entry): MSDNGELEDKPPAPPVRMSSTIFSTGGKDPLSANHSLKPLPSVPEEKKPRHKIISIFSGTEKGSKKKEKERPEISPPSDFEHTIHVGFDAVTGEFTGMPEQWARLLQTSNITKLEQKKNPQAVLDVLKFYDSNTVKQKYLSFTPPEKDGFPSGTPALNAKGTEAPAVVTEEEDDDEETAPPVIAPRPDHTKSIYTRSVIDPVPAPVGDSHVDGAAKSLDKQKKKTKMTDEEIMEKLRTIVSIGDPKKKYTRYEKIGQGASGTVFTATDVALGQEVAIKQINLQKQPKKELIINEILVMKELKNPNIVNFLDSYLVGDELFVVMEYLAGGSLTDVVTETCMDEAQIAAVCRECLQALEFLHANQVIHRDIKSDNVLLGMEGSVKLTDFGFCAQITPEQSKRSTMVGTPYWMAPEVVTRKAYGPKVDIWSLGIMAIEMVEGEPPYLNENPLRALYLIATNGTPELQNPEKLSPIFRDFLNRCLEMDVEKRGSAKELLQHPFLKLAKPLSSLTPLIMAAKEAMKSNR
Put plainly: Proqinase Kinase profiling. It is filed as biochemical. The note with it: read-out: % inhibition at 100nM.

Another test has as its target T6, MET_Y1235D (Homo sapiens, UniProt P08581, Y1235D).
T6 construct: purchased DiscoverX
The test can be described thus: Proqinase Kinase profiling. The class given is biochemical. As to conditions: read-out: % inhibition at 100nM.

Another test addresses T7, BMX (Homo sapiens, UniProt P51813).
T7 construct: purchased DiscoverX
The test can be described thus: Proqinase Kinase profiling. It is filed as biochemical. As to conditions: read-out: % inhibition at 100nM.

The next test deals with T8, DDR2_N456S (Homo sapiens, UniProt Q16832, N456S).
T8 construct: purchased DiscoverX
The test can be described thus: Proqinase Kinase profiling. It is filed as biochemical. The note with it: read-out: % inhibition at 100nM.

Another test deals with T9, MAP2K4 (Homo sapiens, UniProt P45985).
T9 construct: purchased DiscoverX
Put plainly: Proqinase Kinase profiling. It is filed as biochemical. As to conditions: read-out: % inhibition at 100nM.

A further test deals with T10, PKN3 (Homo sapiens, UniProt Q6P5Z2).
T10 construct: purchased DiscoverX
The test can be described thus: Proqinase Kinase profiling. It is filed as biochemical. As to conditions: read-out: % inhibition at 100nM.

Another test addresses T11, DDR2_T654M (Homo sapiens, UniProt Q16832, T654M).
T11 construct: purchased DiscoverX
Put plainly: Proqinase Kinase profiling. As to conditions: read-out: % inhibition at 100nM. The class given is biochemical.

The next test addresses T12, CAMK2G (Homo sapiens, UniProt Q13555).
T12 construct: purchased DiscoverX
The test can be described thus: Proqinase Kinase profiling. The class given is biochemical. As to conditions: read-out: % inhibition at 100nM.

For a further test, the target named is T13, TTBK1 (Homo sapiens, UniProt Q5TCY1).
T13 construct: purchased DiscoverX
Put plainly: Proqinase Kinase profiling. As to conditions: read-out: % inhibition at 100nM. The class given is biochemical.

The target of a further test is T14, CDC7_DBF4 (Homo sapiens, UniProt O00311).
T14 construct: purchased DiscoverX
The test can be described thus: Proqinase Kinase profiling. It is filed as biochemical. The note with it: read-out: % inhibition at 100nM.

A further test has as its target T15, PKMYT1 (Homo sapiens, UniProt Q99640).
T15 construct: purchased DiscoverX
The test can be described thus: Proqinase Kinase profiling. The note with it: read-out: % inhibition at 100nM. The class given is biochemical.

Another test deals with T16, VRK2 (Homo sapiens, UniProt Q86Y07).
T16 construct: purchased DiscoverX
Put plainly: Proqinase Kinase profiling. It is filed as biochemical. The note with it: read-out: % inhibition at 100nM.

For another test, the target named is T17, TTBK2 (Homo sapiens, UniProt Q6IQ55).
T17 construct: purchased DiscoverX
Put plainly: Proqinase Kinase profiling. It is filed as biochemical. As to conditions: read-out: % inhibition at 100nM.

In the next test the target is T18, MAP2K7 (Homo sapiens, UniProt O14733).
T18 construct: purchased DiscoverX
Put plainly: Proqinase Kinase profiling. It is filed as biochemical. The note with it: read-out: % inhibition at 100nM.

The next test has as its target T19, SIK1 (Homo sapiens, UniProt P57059).
T19 construct: purchased DiscoverX
The test can be described thus: Proqinase Kinase profiling. It is filed as biochemical. The note with it: read-out: % inhibition at 100nM.

A further test concerns the target T20, ALK/NPM1 (Homo sapiens, UniProt P06748+Q9UM73).
T20 construct: purchased DiscoverX
The test can be described thus: Proqinase Kinase profiling. As to conditions: read-out: % inhibition at 100nM. It is filed as biochemical.

The target of another test is T21, CDK6_cyclinD3 (Homo sapiens, UniProt Q00534).
T21 construct: purchased DiscoverX
Put plainly: Proqinase Kinase profiling. The class given is biochemical. As to conditions: read-out: % inhibition at 100nM.

Another test deals with T22, MAP2K5 (Homo sapiens, UniProt Q13163).
T22 construct: purchased DiscoverX
The test can be described thus: Proqinase Kinase profiling. The class given is biochemical. As to conditions: read-out: % inhibition at 100nM.

The target of a further test is T23, BUB1B (Homo sapiens, UniProt O60566).
T23 construct: purchased DiscoverX
Put plainly: Proqinase Kinase profiling. It is filed as biochemical. The note with it: read-out: % inhibition at 100nM.

The target in the next test is T24, MLK4 (Homo sapiens, UniProt Q5TCX8).
T24 construct: purchased DiscoverX
Put plainly: Proqinase Kinase profiling. It is filed as biochemical. The note with it: read-out: % inhibition at 100nM.

The target in a further test is T25, EPHA6 (Homo sapiens, UniProt Q9UF33).
T25 construct: purchased DiscoverX
The test can be described thus: Proqinase Kinase profiling. The class given is biochemical. The note with it: read-out: % inhibition at 100nM.

The target in a further test is T26, BRSK2 (Homo sapiens, UniProt Q8IWQ3).
T26 construct: purchased DiscoverX
The test can be described thus: Proqinase Kinase profiling. It is filed as biochemical. The note with it: read-out: % inhibition at 100nM.

The next test deals with T27, ALK_F1174L/NPM1 (Homo sapiens, UniProt P06748+Q9UM73, F1174L).
T27 construct: purchased DiscoverX
The test can be described thus: Proqinase Kinase profiling. It is filed as biochemical. The note with it: read-out: % inhibition at 100nM.

T6 sequence (P08581 25-1390 Y1235D): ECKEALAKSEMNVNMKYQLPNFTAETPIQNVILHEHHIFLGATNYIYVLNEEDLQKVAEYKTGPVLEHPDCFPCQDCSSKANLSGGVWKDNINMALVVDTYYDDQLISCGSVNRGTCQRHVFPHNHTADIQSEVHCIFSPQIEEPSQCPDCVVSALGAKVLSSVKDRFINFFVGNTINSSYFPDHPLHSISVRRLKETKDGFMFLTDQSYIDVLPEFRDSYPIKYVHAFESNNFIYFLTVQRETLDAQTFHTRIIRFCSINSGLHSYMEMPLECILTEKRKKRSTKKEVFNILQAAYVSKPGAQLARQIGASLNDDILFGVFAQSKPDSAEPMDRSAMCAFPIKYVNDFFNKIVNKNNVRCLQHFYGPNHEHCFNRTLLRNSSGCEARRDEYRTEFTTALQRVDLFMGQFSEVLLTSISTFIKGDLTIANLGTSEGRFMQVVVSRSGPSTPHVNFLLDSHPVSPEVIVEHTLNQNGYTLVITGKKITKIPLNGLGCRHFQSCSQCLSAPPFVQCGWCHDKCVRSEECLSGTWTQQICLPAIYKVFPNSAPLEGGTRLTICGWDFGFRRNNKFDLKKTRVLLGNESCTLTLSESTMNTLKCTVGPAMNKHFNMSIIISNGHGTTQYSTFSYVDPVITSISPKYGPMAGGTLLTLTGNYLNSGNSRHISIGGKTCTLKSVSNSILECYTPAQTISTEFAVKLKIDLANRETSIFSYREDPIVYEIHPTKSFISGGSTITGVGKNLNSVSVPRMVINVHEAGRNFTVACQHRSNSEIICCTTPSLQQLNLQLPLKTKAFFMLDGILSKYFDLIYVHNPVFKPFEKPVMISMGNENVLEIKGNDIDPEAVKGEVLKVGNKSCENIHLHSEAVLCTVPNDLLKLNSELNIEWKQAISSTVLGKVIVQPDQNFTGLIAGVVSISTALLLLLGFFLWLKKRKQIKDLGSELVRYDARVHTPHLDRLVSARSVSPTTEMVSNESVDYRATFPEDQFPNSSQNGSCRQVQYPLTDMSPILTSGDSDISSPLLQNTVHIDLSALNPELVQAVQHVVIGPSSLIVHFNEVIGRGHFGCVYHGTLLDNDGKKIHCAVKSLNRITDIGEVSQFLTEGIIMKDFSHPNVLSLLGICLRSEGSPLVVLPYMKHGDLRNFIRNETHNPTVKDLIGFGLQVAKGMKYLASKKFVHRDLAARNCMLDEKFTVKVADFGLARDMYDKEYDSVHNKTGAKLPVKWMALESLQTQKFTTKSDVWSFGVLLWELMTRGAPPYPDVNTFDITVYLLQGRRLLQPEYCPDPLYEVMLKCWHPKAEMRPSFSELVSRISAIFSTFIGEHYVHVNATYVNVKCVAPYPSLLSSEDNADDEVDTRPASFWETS
T3 sequence (P17948 27-1338): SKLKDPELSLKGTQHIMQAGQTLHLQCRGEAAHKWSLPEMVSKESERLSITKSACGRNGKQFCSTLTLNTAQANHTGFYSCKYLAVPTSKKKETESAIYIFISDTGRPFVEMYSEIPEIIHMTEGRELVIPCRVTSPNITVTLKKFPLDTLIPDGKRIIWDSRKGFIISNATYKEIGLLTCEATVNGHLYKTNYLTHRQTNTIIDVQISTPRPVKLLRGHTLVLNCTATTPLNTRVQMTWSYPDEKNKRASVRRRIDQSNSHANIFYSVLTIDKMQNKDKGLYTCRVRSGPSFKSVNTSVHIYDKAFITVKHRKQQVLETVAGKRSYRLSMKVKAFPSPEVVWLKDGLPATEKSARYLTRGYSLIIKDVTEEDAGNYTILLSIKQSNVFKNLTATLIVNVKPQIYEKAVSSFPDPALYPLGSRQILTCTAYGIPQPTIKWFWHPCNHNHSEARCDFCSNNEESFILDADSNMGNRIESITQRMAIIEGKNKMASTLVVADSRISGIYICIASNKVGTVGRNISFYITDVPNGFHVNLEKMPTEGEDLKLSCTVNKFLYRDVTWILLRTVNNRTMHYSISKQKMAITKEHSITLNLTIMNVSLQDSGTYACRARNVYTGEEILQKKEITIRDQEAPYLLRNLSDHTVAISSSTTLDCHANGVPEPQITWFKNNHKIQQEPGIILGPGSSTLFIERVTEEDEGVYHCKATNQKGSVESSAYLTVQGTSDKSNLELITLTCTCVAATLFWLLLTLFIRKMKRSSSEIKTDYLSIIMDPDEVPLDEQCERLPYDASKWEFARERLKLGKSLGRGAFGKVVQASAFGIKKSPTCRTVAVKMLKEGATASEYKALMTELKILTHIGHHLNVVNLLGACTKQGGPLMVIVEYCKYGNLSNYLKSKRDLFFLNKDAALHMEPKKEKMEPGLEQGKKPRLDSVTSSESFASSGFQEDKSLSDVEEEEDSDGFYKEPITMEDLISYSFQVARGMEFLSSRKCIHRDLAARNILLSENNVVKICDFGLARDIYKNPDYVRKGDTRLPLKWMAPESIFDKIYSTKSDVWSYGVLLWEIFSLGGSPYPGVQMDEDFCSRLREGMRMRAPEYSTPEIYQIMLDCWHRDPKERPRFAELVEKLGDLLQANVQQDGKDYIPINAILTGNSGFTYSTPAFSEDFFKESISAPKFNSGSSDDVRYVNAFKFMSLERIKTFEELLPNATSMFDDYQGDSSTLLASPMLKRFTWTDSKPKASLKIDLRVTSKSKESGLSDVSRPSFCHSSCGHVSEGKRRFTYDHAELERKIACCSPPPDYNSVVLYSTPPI
T7 sequence (P51813 whole entry): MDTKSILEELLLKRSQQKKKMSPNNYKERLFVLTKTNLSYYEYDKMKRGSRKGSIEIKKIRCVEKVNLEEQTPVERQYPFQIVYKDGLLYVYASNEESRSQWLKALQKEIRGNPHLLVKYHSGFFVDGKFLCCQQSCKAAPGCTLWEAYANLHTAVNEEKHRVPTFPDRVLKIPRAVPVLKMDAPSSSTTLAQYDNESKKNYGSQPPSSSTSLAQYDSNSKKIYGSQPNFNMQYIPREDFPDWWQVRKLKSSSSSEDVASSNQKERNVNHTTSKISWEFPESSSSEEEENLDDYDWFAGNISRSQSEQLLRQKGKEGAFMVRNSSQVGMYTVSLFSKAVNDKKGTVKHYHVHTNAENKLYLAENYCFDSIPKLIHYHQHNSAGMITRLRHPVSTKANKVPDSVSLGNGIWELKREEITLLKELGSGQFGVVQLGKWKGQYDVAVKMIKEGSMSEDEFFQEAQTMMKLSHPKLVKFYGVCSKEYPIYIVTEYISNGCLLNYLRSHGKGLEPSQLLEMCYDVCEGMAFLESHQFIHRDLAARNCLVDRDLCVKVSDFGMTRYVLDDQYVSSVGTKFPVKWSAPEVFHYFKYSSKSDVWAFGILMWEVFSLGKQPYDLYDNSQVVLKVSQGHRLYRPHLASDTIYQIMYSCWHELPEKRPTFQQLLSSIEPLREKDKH

As to `c1ccc2c(-c3cnn4cc(-c5ccc(N6CCNCC6)cc5)cnc34)ccnc2c1` [LDN-193189, reference compound], at caALK1, the “Inhibition of caALK1-driven BRE-LUC activity” value is listed as “significantly inhibited”. In addition, the “Inhibition of caALK6-driven BRE-LUC activity” value in the test with caALK6 was “significantly inhibited”.

For the compound `Clc1cc2cc(c1)-c1cnn3ccc(nc13)NCCOCCO2` [OD36], the inhibition at 0.1 µM is 16% on AURKB; 20% on FLT1; 10% on GRK6; -5% at PAK2; -5% on MET_Y1235D; 9% on BMX.

For the compound `Cc1cc2cc(c1)-c1cnn3ccc(nc13)NCCNC(=O)CCN(C)C2` [OD52], the inhibition at 0.1 µM on DDR2_N456S is 33%; at MAP2K4, 17%; on PKN3, 16%; on DDR2_T654M, 15%; on CAMK2G, 10%; on TTBK1 it was 8%. Also, the inhibition at 0.1 µM is 6% at CDC7_DBF4; 6% on PKMYT1; 6% on VRK2; 4% at TTBK2; 4% at MAP2K7; -2% at SIK1. Also, the inhibition at 0.1 µM was -4% on AURKB; -4% on FLT1; -5% on ALK/NPM1; -5% at GRK6; -7% at PAK2; -7% at CDK6_cyclinD3. For the same compound, the inhibition at 0.1 µM on MAP2K5 was -9%; on BUB1B, -10%; on MLK4 it was -11%; on EPHA6 it was -12%; at BRSK2 it was -13%; at MET_Y1235D it was -15%. The inhibition at 0.1 µM was -16% on ALK_F1174L/NPM1 and -34% at BMX.
